Data: patent US12281122B1, “PI3K inhibitors” (Cogent Biosciences, Inc., priority 2023, dated 2025)

How the values were obtained:
[1] = system: SKBR3 (PI3Kα-Wild Type) cell line; assay: HTRF phospho-AKT(S473) cell assay in SKBR3 cells; assay type: cell-based, human; conditions: Homo sapiens, SK-BR-3; HTRF phospho-AKT(S473), SKBR3 (PI3Kα-Wild Type) cells, 2 hours compound incubation, PDGF-BB stimulated
Outline: (§1)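 T47D (PI3Kα-H1047R; RPMI, 10% FBS, insulin) and SKBR3 (wild-type PI3Kα; McCoy's 5A, 10% FBS) cells treated 2 h at 37 °C with 12-point 1:3 dilutions, top 5 μM and 10 μM respectively, ≤0.5% DMSO. SKBR3 stimulated with 70 ng/ml PDGF-BB for the last 15 min; lysate pAKT(S473) by HTRF, IC50 from curves.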

[2] = system: T47D (PI3Kα-H1047R) cell line; assay: HTRF phospho-AKT(S473) cell assay in T47D cells; assay type: cell-based, human; conditions: Homo sapiens; HTRF phospho-AKT(S473), T47D (PI3Kα-H1047R) cells, 2 hours compound incubation
Outline: as §1

Row | Structure (SMILES) | IC50 [1] [nM] | IC50 [2] [nM]
1 | Cc1cc([C@@H](C)Nc2ccc(Cl)nc2C(=O)NS(C)(=O)=O)c2nc(N3CCC4(CCOCC4)CC3)n(C)c(=O)c2c1 [Compound 690, (R)-6-chloro-3-((1-(3,6-dimethyl-4-oxo-2-(3-oxa-9-azaspiro[5.5]undecan-9-yl)-3,4-dihydroquinazolin-8-yl)ethyl)amino)-N-(methylsulfonyl) picolinamide] | 1000 to 5000 | < 250
2 | Cc1cc([C@@H](C)Nc2ccc(Cl)nc2C(=O)NS(C)(=O)=O)c2nc(N3CCC(c4cc5ccccn5n4)CC3)n(C)c(=O)c2c1 [Compound 692, (R)-6-chloro-3-((1-(3,6-dimethyl-4-oxo-2-(4-(pyrazolo[1,5-a]pyridin-2-yl)piperidin-1-yl)-3,4-dihydroquinazolin-8-yl)ethyl)amino)-N-(methylsulfonyl) picolinamide] | ≥ 5000 | 250 to 500
3 | Cc1cc([C@@H](C)Nc2ccc(Cl)nc2C(=O)NS(C)(=O)=O)c2nc(N3Cc4cn(C5CC(F)(F)C5)nc4C3)n(C)c(=O)c2c1 [Compound 693, (R)-6-chloro-3-((1-(2-(2-(3,3-difluorocyclobutyl)-2,6-dihydropyrrolo[3,4-c]pyrazol-5(4H)-yl)-3,6-dimethyl-4-oxo-3,4-dihydroquinazolin-8-yl)ethyl)amino)-N-(methylsulfonyl) picolinamide] | 1000 to 5000 | < 250
4 | Cc1cc([C@@H](C)Nc2ccc(Cl)nc2C(=O)NS(C)(=O)=O)c2nc(N3CCC(Oc4ccccn4)CC3)n(C)c(=O)c2c1 [Compound 694, (R)-6-chloro-3-((1-(3,6-dimethyl-4-oxo-2-(4-(pyridin-2-yloxy)piperidin-1-yl)-3,4-dihydroquinazolin-8-yl)ethyl)amino)-N-(methylsulfonyl) picolinamide] | ≥ 5000 | 250 to 500
5 | Cc1cc([C@@H](C)Nc2ccc(Cl)nc2C(=O)NS(C)(=O)=O)c2nc(N3[C@@H]4CC[C@H]3C[C@H](n3ncc5ccccc53)C4)n(C)c(=O)c2c1 [Compound 695, 3-(((R)-1-(2-((1R,3S,5S)-3-(1H-indazol-1-yl)-8-azabicyclo[3.2.1]octan-8-yl)-3,6-dimethyl-4-oxo-3,4-dihydroquinazolin-8-yl)ethyl)amino)-6-chloro-N-(methylsulfonyl) picolinamide] | ≥ 5000 | 250 to 500
6 | Cc1cc([C@@H](C)Nc2ccc(Cl)nc2C(=O)NS(C)(=O)=O)c2nc(N3[C@@H]4CC[C@H]3C[C@@H](n3ncc5ccccc53)C4)n(C)c(=O)c2c1 [Compound 696, 3-(((R)-1-(2-((1R,3R,5S)-3-(1H-indazol-1-yl)-8-azabicyclo[3.2.1]octan-8-yl)-3,6-dimethyl-4-oxo-3,4-dihydroquinazolin-8-yl)ethyl)amino)-6-chloro-N-(methylsulfonyl) picolinamide] | ≥ 5000 | 500 to 1000
7 | Cc1cc([C@@H](C)Nc2ccc(Cl)nc2C(=O)NS(C)(=O)=O)c2nc(N3CCC(c4nn(C)cc4C#N)CC3)n(C)c(=O)c2c1 [Compound 697, (R)-6-chloro-3-((1-(2-(4-(4-cyano-1-methyl-1H-pyrazol-3-yl)piperidin-1-yl)-3,6-dimethyl-4-oxo-3,4-dihydroquinazolin-8-yl)ethyl)amino)-N-(methylsulfonyl) picolinamide] | 1000 to 5000 | 250 to 500
8 | Cc1cc([C@@H](C)Nc2ccc(Cl)nc2C(=O)NS(C)(=O)=O)c2nc(N3Cc4cn(-c5ncc(C#N)cc5C)nc4C3)n(C)c(=O)c2c1 [Compound 698, (R)-6-chloro-3-((1-(2-(2-(5-cyano-3-methylpyridin-2-yl)-2,6-dihydropyrrolo[3,4-c]pyrazol-5(4H)-yl)-3,6-dimethyl-4-oxo-3,4-dihydroquinazolin-8-yl)ethyl)amino)-N-(methylsulfonyl) picolinamide] | 1000 to 5000 | 250 to 500
9 | Cc1cc([C@@H](C)Nc2ccc(Cl)nc2C(=O)NS(C)(=O)=O)c2nc(N3C[C@@H]4[C@H](C3)[C@H]4c3cc[nH]n3)n(C)c(=O)c2c1 [Compound 699, 3-(((R)-1-(2-((1R,5S,6R)-6-(1H-pyrazol-3-yl)-3-azabicyclo[3.1.0]hexan-3-yl)-3,6-dimethyl-4-oxo-3,4-dihydroquinazolin-8-yl)ethyl)amino)-6-chloro-N-(methylsulfonyl) picolinamide] | 1000 to 5000 | 250 to 500
10 | COc1ccc(C2CCN(c3nc4c([C@@H](C)Nc5ccc(Cl)nc5C(=O)NS(C)(=O)=O)cc(C)cc4c(=O)n3C)CC2)cn1 [Compound 700, (R)-6-chloro-3-((1-(2-(4-(6-methoxypyridin-3-yl)piperidin-1-yl)-3,6-dimethyl-4-oxo-3,4-dihydroquinazolin-8-yl)ethyl)amino)-N-(methylsulfonyl) picolinamide] | ≥ 5000 | 250 to 500
11 | Cc1cc([C@@H](C)Nc2ccc(Cl)nc2C(=O)NS(C)(=O)=O)c2nc(N3Cc4cn(-c5ncccc5C)nc4C3)n(C)c(=O)c2c1 [Compound 701, (R)-6-chloro-3-((1-(3,6-dimethyl-2-(2-(3-methylpyridin-2-yl)-2,6-dihydropyrrolo[3,4-c]pyrazol-5(4H)-yl)-4-oxo-3,4-dihydroquinazolin-8-yl)ethyl)amino)-N-(methylsulfonyl) picolinamide] | ≥ 5000 | 250 to 500
12 | Cc1cc([C@@H](C)Nc2ccc(Cl)nc2C(=O)NS(C)(=O)=O)c2nc(N3CCC(c4nn(C)cc4Cl)CC3)n(C)c(=O)c2c1 [Compound 702, (R)-6-chloro-3-((1-(2-(4-(4-chloro-1-methyl-1H-pyrazol-3-yl)piperidin-1-yl)-3,6-dimethyl-4-oxo-3,4-dihydroquinazolin-8-yl)ethyl)amino)-N-(methylsulfonyl) picolinamide] | ≥ 5000 | 250 to 500
13 | COc1cc(C2CCN(c3nc4c([C@@H](C)Nc5ccc(Cl)nc5C(=O)NS(C)(=O)=O)cc(C)cc4c(=O)n3C)CC2)nn1C [Compound 704, (R)-6-chloro-3-((1-(2-(4-(5-methoxy-1-methyl-1H-pyrazol-3-yl)piperidin-1-yl)-3,6-dimethyl-4-oxo-3,4-dihydroquinazolin-8-yl)ethyl)amino)-N-(methylsulfonyl) picolinamide] | ≥ 5000 | 250 to 500
14 | COc1ccccc1-n1cc2c(n1)CN(c1nc3c([C@@H](C)Nc4ccc(Cl)nc4C(=O)NS(C)(=O)=O)cc(C)cc3c(=O)n1C)C2 [Compound 705, (R)-6-chloro-3-((1-(2-(2-(2-methoxyphenyl)-2,6-dihydropyrrolo[3,4-c]pyrazol-5(4H)-yl)-3,6-dimethyl-4-oxo-3,4-dihydroquinazolin-8-yl)ethyl)amino)-N-(methylsulfonyl) picolinamide] | ≥ 5000 | 250 to 500
15 | Cc1cc([C@@H](C)Nc2ccc(Cl)nc2C(=O)NS(C)(=O)=O)c2nc(N3CCC(c4ccc[nH]c4=O)CC3)n(C)c(=O)c2c1 [Compound 706, (R)-6-chloro-3-((1-(3,6-dimethyl-4-oxo-2-(4-(2-oxo-1,2-dihydropyridin-3-yl)piperidin-1-yl)-3,4-dihydroquinazolin-8-yl)ethyl)amino)-N-(methylsulfonyl) picolinamide] | ≥ 5000 | 500 to 1000
16 | Cc1cc([C@@H](C)Nc2ccc(Cl)nc2C(=O)NS(C)(=O)=O)c2nc(N3CC[C@@H](Oc4cncnc4)C3)n(C)c(=O)c2c1 [Compound 707, 6-chloro-3-(((R)-1-(3,6-dimethyl-4-oxo-2-((R)-3-(pyrimidin-5-yloxy)pyrrolidin-1-yl)-3,4-dihydroquinazolin-8-yl)ethyl)amino)-N-(methylsulfonyl) picolinamide] | 1000 to 5000 | 250 to 500
17 | Cc1cc([C@@H](C)Nc2ccc(Cl)nc2C(=O)NS(C)(=O)=O)c2nc(N3CCC4(CCCN(c5ccn(C)n5)C4)C3)n(C)c(=O)c2c1 (stereo partly drawn) [Compound 708, 6-chloro-3-(((1R)-1-(3,6-dimethyl-2-(7-(1-methyl-1H-pyrazol-3-yl)-2,7-diazaspiro[4.5]decan-2-yl)-4-oxo-3,4-dihydroquinazolin-8-yl)ethyl)amino)-N-(methylsulfonyl) picolinamide] | ≥ 5000 | 250 to 500
18 | Cc1cc([C@@H](C)Nc2ccc(Cl)nc2C(=O)NS(C)(=O)=O)c2nc(N3Cc4ccc(-c5ccnc(C)c5)cc4C3)n(C)c(=O)c2c1 [Compound 709, (R)-6-chloro-3-((1-(3,6-dimethyl-2-(5-(2-methylpyridin-4-yl)isoindolin-2-yl)-4-oxo-3,4-dihydroquinazolin-8-yl)ethyl)amino)-N-(methylsulfonyl) picolinamide] | ≥ 5000 | 250 to 500
19 | Cc1cc([C@@H](C)Nc2ccc(Cl)nc2C(=O)NS(C)(=O)=O)c2nc(N3CC[C@@H](Oc4ccnnc4)C3)n(C)c(=O)c2c1 [Compound 710, 6-chloro-3-(((R)-1-(3,6-dimethyl-4-oxo-2-((R)-3-(pyridazin-4-yloxy)pyrrolidin-1-yl)-3,4-dihydroquinazolin-8-yl)ethyl)amino)-N-(methylsulfonyl) picolinamide] | ≥ 5000 | 1000 to 5000
20 | Cc1cc([C@@H](C)Nc2ccc(Cl)nc2C(=O)NS(C)(=O)=O)c2nc(N3CCn4ncc(F)c4C3)n(C)c(=O)c2c1 [Compound 711, (R)-6-chloro-3-((1-(2-(3-fluoro-6,7-dihydropyrazolo[1,5-a]pyrazin-5(4H)-yl)-3,6-dimethyl-4-oxo-3,4-dihydroquinazolin-8-yl)ethyl)amino)-N-(methylsulfonyl) picolinamide] | 1000 to 5000 | 250 to 500
21 | Cc1cc([C@@H](C)Nc2ccc(Cl)nc2C(=O)NS(C)(=O)=O)c2nc(N3CCC(n4ncc(F)c4C)CC3)n(C)c(=O)c2c1 [Compound 712, (R)-6-chloro-3-((1-(2-(4-(4-fluoro-5-methyl-1H-pyrazol-1-yl)piperidin-1-yl)-3,6-dimethyl-4-oxo-3,4-dihydroquinazolin-8-yl)ethyl)amino)-N-(methylsulfonyl) picolinamide] | 1000 to 5000 | < 250
